Literature values, collected in patent US7446222B2, “Phenyl compounds” (Glaxo Group Limited, priority 2002, dated 2008).

Assays:
[1] = biological target: T1, human EP1 prostanoid receptor (Homo sapiens, UniProt P34995); conditions: human EP1 prostanoid receptor ligand
T1 sequence (P34995 1-402): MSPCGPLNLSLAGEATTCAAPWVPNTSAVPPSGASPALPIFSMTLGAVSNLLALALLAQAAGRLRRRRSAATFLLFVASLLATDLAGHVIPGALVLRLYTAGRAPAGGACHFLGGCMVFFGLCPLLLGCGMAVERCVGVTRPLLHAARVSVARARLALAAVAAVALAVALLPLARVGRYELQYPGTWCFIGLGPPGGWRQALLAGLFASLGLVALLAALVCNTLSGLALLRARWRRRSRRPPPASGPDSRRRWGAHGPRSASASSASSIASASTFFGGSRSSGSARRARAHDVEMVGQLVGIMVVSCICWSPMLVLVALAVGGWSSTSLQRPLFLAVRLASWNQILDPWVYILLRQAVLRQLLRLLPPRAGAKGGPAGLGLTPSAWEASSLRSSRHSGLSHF

[2] = test system: rat model of chronic constriction injury
[3] = test system: rodent model of post-operative pain

potency compared with the comparable 2,3-diarylthiophene compound [1] | selectivity compared with the comparable 2,3-diarylthiophene compound [1] | SMILES | effect on hyperalgesia and allodynia [2] | effect on mechanical hyperalgesia [3]
less potent | less selective | O=C(O)c1ccc(-c2ccccc2-c2ccccc2OCc2ccccc2)cc1 [2-benzyloxy[1,1′;2′,1″]terphenyl-4″-carboxylic acid] | – | –
– | – | Cc1cc(Cl)ccc1S(=O)(=O)NC[C@H]1C2CCC(CC2)[C@@H]1/C=C\CCCC(=O)O [ONO-8711] | reduces hyperalgesia and allodynia | inhibits mechanical hyperalgesia
